The values below come from patent publication US12685741B2, “N-acetylneuraminic acid compositions and methods of use” (LifeScience AS, priority 2017, dated 2026).

Broadly, the NOAEL is the highest dose or exposure tested at which no adverse effect was seen.

Series [1] has as its system herpes. Nature of the series: Oral NANA in a subject with chronic herpes outbreaks. Format: in vivo, human. Conditions: daily dose of 3 grams, outbreaks approximately every other week for 10 years before. As to the method:
A daily dose of 3 grams NANA was administered to a subject suffering from chronic herpes outbreaks which had occurred approximately every other week for 10 years.

The conditions of series [2]: rat, in vivo, cited from earlier work.
For series [3] the following is noted: cited from earlier work.
For series [4] the following is noted: cited from earlier work. This is another data set of the same source.

Turning to `CC(=O)N[C@H]1[C@H]([C@H](O)[C@H](O)CO)OC(O)(C(=O)O)C[C@@H]1O` (stereo partly drawn) [NANA, N-acetylneuraminic acid], in series [1], the herpes outbreaks result is reported as “has not had a herpes outbreak for two months”. Further, the toxic effects result in series [2] (po) is “No toxic effects have been detected”. Also, the no-observed-adverse-effect level (NOAEL) in series [2] is on record as 974 mg/kg body weight/day. In addition, the absorption after ingestion entry in series [3] (in vivo) is “rapidly absorbed”. Moreover, the excretion entry in series [3] (via urine) is recorded as “quickly excreted”. For the same compound, in series [4], the solubility in water result is recorded as “Easily soluble in water”.
